System: 454973-116-R2-J3-PDC spheroids, viability, % test/control
Test: Anticancer human tumor 454973-116-R2-J3-PDC patient-derived pancreatic carcinoma cell line growth inhibition [GQUAD]
Details: spheroids with HUVEC and MSC; for IC50: curve of first compound; for viability, T/C: stronger effect = lower value
How it was run: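 Viability of tumor cells grown as complex spheroids with endothelial and stromal cells, exposed to drug combinations. Top concentration at or near clinical Cmax (else 10 microM), diluted in half-log increments.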

[1] = second compound 0.0316 µM, first compound 0.0316 µM
[2] = second compound 0.0316 µM, first compound 0.1 µM
[3] = second compound 0.0316 µM, first compound 0.316 µM
[4] = second compound 0.0316 µM, first compound 1 µM
[5] = second compound 0.0316 µM, first compound 3.16 µM
[6] = second compound 0.0316 µM, first compound 10 µM
[7] = second compound 0.1 µM, first compound 0.0316 µM
[8] = second compound 0.1 µM, first compound 0.1 µM
[9] = second compound 0.1 µM, first compound 0.316 µM
[10] = second compound 0.1 µM, first compound 1 µM
[11] = second compound 0.1 µM, first compound 3.16 µM
[12] = second compound 0.1 µM, first compound 10 µM
[13] = second compound 0.316 µM, first compound 0.0316 µM
[14] = second compound 0.316 µM, first compound 0.1 µM
[15] = second compound 0.316 µM, first compound 0.316 µM
[16] = second compound 0.316 µM, first compound 1 µM
[17] = second compound 0.316 µM, first compound 3.16 µM
[18] = second compound 0.316 µM, first compound 10 µM
[19] = second compound 1 µM, first compound 0.0316 µM
[20] = second compound 1 µM, first compound 0.1 µM
[21] = second compound 1 µM, first compound 0.316 µM
[22] = second compound 1 µM, first compound 1 µM
[23] = second compound 1 µM, first compound 3.16 µM
[24] = second compound 1 µM, first compound 10 µM
[25] = second compound 3.16 µM, first compound 0.0316 µM
[26] = second compound 3.16 µM, first compound 0.1 µM
[27] = second compound 3.16 µM, first compound 0.316 µM
[28] = second compound 3.16 µM, first compound 1 µM
[29] = second compound 3.16 µM, first compound 3.16 µM
[30] = second compound 3.16 µM, first compound 10 µM
[31] = second compound 10 µM, first compound 0.0316 µM
[32] = second compound 10 µM, first compound 0.1 µM
[33] = second compound 10 µM, first compound 0.316 µM
[34] = second compound 10 µM, first compound 1 µM
[35] = second compound 10 µM, first compound 3.16 µM
[36] = second compound 10 µM, first compound 10 µM
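Further: spheroids exposed to compounds for seven days.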
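Wherever viability, T/C is given: 100% = DMSO vehicle control viability.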

O=C(c1cc(Cc2n[nH]c(=O)c3ccccc23)ccc1F)N1CCN(C(=O)C2CC2)CC1 + Cc1cnc(CNC(=O)c2c(=O)c3ccc(N4CCCN(C)CC4)nc3n3c2sc2ccccc23)cn1
IC50 (second compound 0.0316 µM): 9010 nM
IC50 (second compound 0.1 µM): 7580 nM
IC50 (second compound 0.316 µM): 6210 nM
IC50 (second compound 1 µM): > 10000 nM
IC50 (second compound 3.16 µM): > 10000 nM
IC50 (second compound 10 µM): < 31.6 nM
viability, T/C [1]: 103%
viability, T/C [2]: 85.1%
viability, T/C [3]: 90.5%
viability, T/C [4]: 82.8%
viability, T/C [5]: 80.9%
viability, T/C [6]: 46.5%
viability, T/C [7]: 81.1%
viability, T/C [8]: 80.4%
viability, T/C [9]: 72.2%
viability, T/C [10]: 65.5%
viability, T/C [11]: 65.8%
viability, T/C [12]: 44.5%
viability, T/C [13]: 69.1%
viability, T/C [14]: 67.4%
viability, T/C [15]: 61.7%
viability, T/C [16]: 65.3%
viability, T/C [17]: 54.9%
viability, T/C [18]: 45.9%
viability, T/C [19]: 60.5%
viability, T/C [20]: 65.3%
viability, T/C [21]: 64%
viability, T/C [22]: 63.7%
viability, T/C [23]: 58.2%
viability, T/C [24]: 55.4%
viability, T/C [25]: 74.2%
viability, T/C [26]: 69.1%
viability, T/C [27]: 64%
viability, T/C [28]: 60.9%
viability, T/C [29]: 58.3%
viability, T/C [30]: 56.2%
viability, T/C [31]: 0.27%
viability, T/C [32]: 18.9%
viability, T/C [33]: 15.1%
viability, T/C [34]: 35.9%
viability, T/C [35]: 0.4%
viability, T/C [36]: 0.28%

C=CCn1c(=O)c2cnc(Nc3ccc(N4CCN(C)CC4)cc3)nc2n1-c1cccc(C(C)(C)O)n1 + CN(C)c1ccc(Nc2c3ccc(NC(=O)CCN4CCCC4)cc3nc3cc(NC(=O)CCN4CCCC4)ccc23)cc1
IC50 (second compound 0.0316 µM): 433 nM
IC50 (second compound 0.1 µM): 350 nM
IC50 (second compound 0.316 µM): 399 nM
IC50 (second compound 1 µM): 365 nM
IC50 (second compound 3.16 µM): 423 nM
IC50 (second compound 10 µM): 431 nM
viability, T/C [1]: 109%
viability, T/C [2]: 89.4%
viability, T/C [3]: 65.3%
viability, T/C [4]: 16.2%
viability, T/C [5]: 7.05%
viability, T/C [6]: 8.82%
viability, T/C [7]: 108%
viability, T/C [8]: 98.7%
viability, T/C [9]: 51.8%
viability, T/C [10]: 19.7%
viability, T/C [11]: 6.15%
viability, T/C [12]: 9.87%
viability, T/C [13]: 99.4%
viability, T/C [14]: 90.7%
viability, T/C [15]: 59.2%
viability, T/C [16]: 15.8%
viability, T/C [17]: 6.5%
viability, T/C [18]: 9.33%
viability, T/C [19]: 82.9%
viability, T/C [20]: 89.5%
viability, T/C [21]: 55.6%
viability, T/C [22]: 11.3%
viability, T/C [23]: 7.68%
viability, T/C [24]: 9.81%
viability, T/C [25]: 85.2%
viability, T/C [26]: 83.2%
viability, T/C [27]: 61.9%
viability, T/C [28]: 14.7%
viability, T/C [29]: 8.4%
viability, T/C [30]: 12.1%
viability, T/C [31]: 71.4%
viability, T/C [32]: 78.3%
viability, T/C [33]: 57.8%
viability, T/C [34]: 25.7%
viability, T/C [35]: 11.2%
viability, T/C [36]: 10.8%

Reference: PubChem BioAssay AID2060508 (Molecular Pharmacology Branch, DTP, NCI, 2025)
